The test has as its target T1, glutaminase (GAC) (Homo sapiens, UniProt O94925).
T1 sequence (O94925 55-598 isoform O94925-3 limits assumed): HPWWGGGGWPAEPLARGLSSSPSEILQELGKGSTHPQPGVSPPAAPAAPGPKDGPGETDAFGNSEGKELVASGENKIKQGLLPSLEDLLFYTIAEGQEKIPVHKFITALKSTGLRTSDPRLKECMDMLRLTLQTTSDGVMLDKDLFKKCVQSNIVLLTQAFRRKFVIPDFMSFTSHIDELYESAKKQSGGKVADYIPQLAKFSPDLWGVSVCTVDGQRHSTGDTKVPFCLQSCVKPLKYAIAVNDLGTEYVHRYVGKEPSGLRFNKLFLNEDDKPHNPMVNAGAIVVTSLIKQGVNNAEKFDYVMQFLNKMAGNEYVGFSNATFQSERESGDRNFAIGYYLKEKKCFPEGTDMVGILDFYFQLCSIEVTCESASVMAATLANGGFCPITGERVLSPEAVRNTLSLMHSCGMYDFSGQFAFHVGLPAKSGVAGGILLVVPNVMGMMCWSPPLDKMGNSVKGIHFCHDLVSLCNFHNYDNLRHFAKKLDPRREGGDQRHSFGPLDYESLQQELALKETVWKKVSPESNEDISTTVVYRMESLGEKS
The experiment in a line: glutaminase coupled endpoint assay (Example A). The format is biochemical. Conditions: inhibition of glutaminase; IC50 tested in an assay of Example A or Example B. Here is the method: In this example, the enzymatic activity of glutaminase is measured through a coupled endpoint assay. […] The glutamate produced is converted to 2-OG by a kinetic excess of glutamate dehydrogenase. […] However, a kinetic excess of the third coupling enzyme, diaphorase, recycles NAD from NADH to keep the NAD concentration constant during the timecourse of the assay. Diaphorase, also supplied in kinetic excess, oxidizes NADH produced by GDH back to NAD with the concomitant reduction of rezasurin to the highly fluorescent resorufin. […] A reduction in the signal indicates inhibition of some component of the coupled enzyme system. Prospective hits are counterscreened against GDH/diaphorase alone to remove hits to the coupling enzyme system in a second assay.
2. […] Add 1 μl a compound in 100% DMSO 2. Add 40 μl of Enzyme Mix and incubate for 60 minute at room temperature 3. Add 10 μl of Substrate Mix to start reaction 4.
Usually IC50 stands for the concentration that inhibits the measured activity by half. A low value points to greater potency in that assay. Consider `CC(C(=O)Nc1nnc(CCCCc2nnc(NC(=O)C(C)c3ccc(Cl)cc3)s2)s1)c1ccc(Cl)cc1` (stereo not drawn) [Compound 52, N,N′-(5,5′-(butane-1,4-diyl)bis(1,3,4-thiadiazole-5,2-diyl))bis(2-(4-chlorophenyl)propanamide)], for which the IC50 was 100 to 500 nM.
Regarding `COc1cccc(CCC(=O)Nc2nnc(CCCCc3nnc(NC(=O)CCc4cccc(OC)c4)s3)s2)c1` [Compound 53, N,N′-(5,5′-(butane-1,4-diyl)bis(1,3,4-thiadiazole-5,2-diyl))bis(3-(3-methoxyphenyl)propanamide)], the IC50 was less than 100 nM.
With `O=C(CCc1cccnc1)Nc1nnc(CCCCc2nnc(NC(=O)CCc3cccnc3)s2)s1` [Compound 54, N,N′-(5,5′-(butane-1,4-diyl)bis(1,3,4-thiadiazole-5,2-diyl))bis(3-(pyridin-3-yl)propanamide)] the figure was 500 to 1000 nM.
On to `O=C(Cc1ccc2c(c1)OCO2)Nc1nnc(CCCCc2nnc(NC(=O)Cc3ccc4c(c3)OCO4)s2)s1` [Compound 55, N,N′-(5,5′-(butane-1,4-diyl)bis(1,3,4-thiadiazole-5,2-diyl))bis(2-(benzo[d][1,3]dioxol-5-yl)acetamide)], for which the IC50 was less than 100 nM.
With `O=C(Cc1ccccc1)Nc1nnc(CCS(=O)(=O)Cc2nnc(NC(=O)Cc3ccccc3)s2)s1` [Compound 56] the figure was 100 to 500 nM.
For `O=C(Cc1ccccn1)Nc1nnc(CCSCc2nnc(NC(=O)Cc3ccccn3)s2)s1` [Compound 57], the IC50 is less than 100 nM.
Under `CC(=O)Oc1cccc(C(=O)Nc2nnc(CCCCc3nnc(NC(=O)c4cccc(OC(C)=O)c4C)s3)s2)c1C` [Compound 58] stands 1000 to 10000 nM.
Under `O=C(CCN1CCCCC1)Nc1nnc(CCCCc2nnc(NC(=O)CCN3CCCCC3)s2)s1` [Compound 59] stands 1000 to 10000 nM; under `O=C(Cc1noc2ccccc12)Nc1nnc(CCCCc2nnc(NC(=O)Cc3noc4ccccc34)s2)s1` [Compound 60, N,N′-(5,5′-(butane-1,4-diyl)bis(1,3,4-thiadiazole-5,2-diyl))bis(2-(benzo[d]isoxazol-3-yl)acetamide)], less than 100 nM; under `COc1ccc2[nH]cc(CC(=O)Nc3nnc(CCCCc4nnc(NC(=O)Cc5c[nH]c6ccc(OC)cc56)s4)s3)c2c1` [Compound 61, N,N′-(5,5′-(butane-1,4-diyl)bis(1,3,4-thiadiazole-5,2-diyl))bis(2-(5-methoxy-1H-indol-3-yl)acetamide)], less than 100 nM.
With `CC(CC(=O)c1ccccc1)C(=O)Nc1nnc(CCCCc2nnc(NC(=O)C(C)CC(=O)c3ccccc3)s2)s1` (stereo not drawn) [Compound 62, N,N′-(5,5′-(butane-1,4-diyl)bis(1,3,4-thiadiazole-5,2-diyl))bis(2-methyl-4-oxo-4-phenylbutanamide)], the IC50 was 100 to 500 nM.
`COc1ccc(CC(=O)Nc2nnc(CCCCc3nnc(NC(=O)Cc4ccc(OC)c(OC)c4)s3)s2)cc1OC` [Compound 63, N,N′-(5,5′-(butane-1,4-diyl)bis(1,3,4-thiadiazole-5,2-diyl))bis(2-(3,4-dimethoxyphenyl)acetamide)] had an IC50 of less than 100 nM.
Under `O=C(Nc1nnc(CCCCc2nnc(NC(=O)C3CC=CC3)s2)s1)C1CC=CC1` [Compound 64, N,N′-(5,5′-(butane-1,4-diyl)bis(1,3,4-thiadiazole-5,2-diyl))dicyclopent-3-enecarboxamide] stands 100 to 500 nM; under `Cc1ccc(OCC(=O)Nc2nnc(CCCCc3nnc(NC(=O)COc4ccc(C)cc4C)s3)s2)c(C)c1` [Compound 65], 1000 to 10000 nM; under `CCOC(=O)CCC(=O)Nc1nnc(CCCCc2nnc(NC(=O)CCC(=O)OCC)s2)s1` [Compound 66, Diethyl 4,4′-(5,5′-(butane-1,4-diyl)bis(1,3,4-thiadiazole-5,2-diyl))bis(azanediyl)bis(4-oxobutanoate)], 100 to 500 nM.
Under `Cc1ccc(C)c(OCC(=O)Nc2nnc(CCCCc3nnc(NC(=O)COc4cc(C)ccc4C)s3)s2)c1` [Compound 67] stands 1000 to 10000 nM; under `CC(=O)NCCC(=O)Nc1nnc(CCCCc2nnc(NC(=O)CCNC(C)=O)s2)s1` [Compound 68], 1000 to 10000 nM; under `CC(=O)NCCCC(=O)Nc1nnc(CCCCc2nnc(NC(=O)CCCNC(C)=O)s2)s1` [Compound 70], 1000 to 10000 nM.
Take `O=C(Cc1nn[nH]n1)Nc1nnc(CCCCc2nnc(NC(=O)Cc3nn[nH]n3)s2)s1` [Compound 71, N,N′-(5,5′-(butane-1,4-diyl)bis(1,3,4-thiadiazole-5,2-diyl))bis(2-(1H-tetrazol-5-yl)acetamide)]: the IC50 lay in the range of 100 to 500 nM.
With `CC(=O)CCCCC(=O)Nc1nnc(CCCCc2nnc(NC(=O)CCCCC(C)=O)s2)s1` [Compound 72, N,N′-(5,5′-(butane-1,4-diyl)bis(1,3,4-thiadiazole-5,2-diyl))bis(6-oxoheptanamide)] the figure was 100 to 500 nM; with `O=C(CCc1nnc(NC(=O)Cc2ccccn2)s1)CCc1nnc(NC(=O)Cc2ccccn2)s1` [Compound 73], 500 to 1000 nM.
Under `COc1ccccc1OCC(=O)Nc1nnc(CCCCc2nnc(NC(=O)COc3ccccc3OC)s2)s1` [Compound 74] stands 100 to 500 nM; under `COc1ccc(CCCC(=O)Nc2nnc(CCCCc3nnc(NC(=O)CCCc4ccc(OC)cc4)s3)s2)cc1` [Compound 75, N,N′-(5,5′-(butane-1,4-diyl)bis(1,3,4-thiadiazole-5,2-diyl))bis(4-(4-methoxyphenyl)butanamide)], 100 to 500 nM; under `CCOC(=O)CCCC(=O)Nc1nnc(CCCCc2nnc(NC(=O)CCCC(=O)OCC)s2)s1` [Compound 76, Diethyl 5,5′-(5,5′-(butane-1,4-diyl)bis(1,3,4-thiadiazole-5,2-diyl))bis(azanediyl)bis(5-oxopentanoate)], 100 to 500 nM.
Under `CNC(=O)c1nnc(CCSCCc2nnc(C(=O)NC)s2)s1` [Compound 77] stands 1000 to 10000 nM; under `O=C(Cc1ccc(Cl)nc1)Nc1nnc(CCCCc2nnc(NC(=O)Cc3ccc(Cl)nc3)s2)s1` [Compound 78, N,N′-(5,5′-(butane-1,4-diyl)bis(1,3,4-thiadiazole-5,2-diyl))bis(2-(6-chloropyridin-3-yl)acetamide)], 500 to 1000 nM; under `CC(C)c1ccc(OCC(=O)Nc2nnc(CCCCc3nnc(NC(=O)COc4ccc(C(C)C)cc4)s3)s2)cc1` [Compound 79], 1000 to 10000 nM.
In the case of `O=C(CCCC1CCCCC1)Nc1nnc(CCCCc2nnc(NC(=O)CCCC3CCCCC3)s2)s1` [Compound 80, N,N′-(5,5′-(butane-1,4-diyl)bis(1,3,4-thiadiazole-5,2-diyl))bis(4-cyclohexylbutanamide)], the IC50 is 500 to 1000 nM.
With `O=C(C/C=C/c1ccccc1)Nc1nnc(CCCCc2nnc(NC(=O)C/C=C/c3ccccc3)s2)s1` [Compound 81, (3E,3′E)-N,N′-(5,5′-(butane-1,4-diyl)bis(1,3,4-thiadiazole-5,2-diyl))bis(4-phenylbut-3-enamide)] the figure was 100 to 500 nM; with `O=C(CCCc1ccccc1)Nc1nnc(CCCCc2nnc(NC(=O)CCCc3ccccc3)s2)s1` [Compound 82, N,N′-(5,5′-(butane-1,4-diyl)bis(1,3,4-thiadiazole-5,2-diyl))bis(4-phenylbutanamide)], 100 to 500 nM.
`O=C(Cc1ccc(F)c(F)c1)Nc1nnc(CCCCc2nnc(NC(=O)Cc3ccc(F)c(F)c3)s2)s1` [Compound 83, N,N′-(5,5′-(butane-1,4-diyl)bis(1,3,4-thiadiazole-5,2-diyl))bis(2-(3,4-difluorophenyl)acetamide)] yielded an IC50 of less than 100 nM.
With `O=C(Nc1nnc(CCCCc2nnc(NC(=O)C3(c4ccccc4)CC3)s2)s1)C1(c2ccccc2)CC1` [Compound 84] the figure was 1000 to 10000 nM; with `O=C(Nc1nnc(CCCCc2nnc(NC(=O)c3cccc4ccccc34)s2)s1)c1cccc2ccccc12` [Compound 85, N,N′-(5,5′-(butane-1,4-diyl)bis(1,3,4-thiadiazole-5,2-diyl))di-1-naphthamide], 100 to 500 nM.
With `O=C(Cc1c[nH]c2ccccc12)Nc1nnc(CCCCc2nnc(NC(=O)Cc3c[nH]c4ccccc34)s2)s1` [Compound 87, N,N′-(5,5′-(butane-1,4-diyl)bis(1,3,4-thiadiazole-5,2-diyl))bis(2-(1H-indol-3-yl)acetamide)] the figure was less than 100 nM.
Turning to `CC(C)(C(=O)Nc1nnc(CCCCc2nnc(NC(=O)C(C)(C)c3ccccc3)s2)s1)c1ccccc1` [Compound 88, N,N′-(5,5′-(butane-1,4-diyl)bis(1,3,4-thiadiazole-5,2-diyl))bis(2-methyl-2-phenylpropanamide)], the IC50 lay within 500 to 1000 nM.
With `O=C(CC1NC(=O)NC1=O)Nc1nnc(CCCCc2nnc(NC(=O)CC3NC(=O)NC3=O)s2)s1` (stereo not drawn) [Compound 89, N,N′-(5,5′-(butane-1,4-diyl)bis(1,3,4-thiadiazole-5,2-diyl))bis(2-(2,5-dioxoimidazolidin-4-yl)acetamide)] the figure was 100 to 500 nM.

These data come from patent publication US10414740B2, “Glutaminase inhibitors and method of use” (Agios Pharmaceuticals, Inc., priority 2012, dated 2019).
